Test results as given in PubChem BioAssay AID1259407 (Chemical Carcinogenesis Research Information System (CCRIS), 2018).
Active and inactive are the calls of the source. No rule for the calls is given here.

System: CCRIS mutagenicity, Ames/micronucleus/aberration tests
Assay: CCRIS mutagenicity studies
[1] = Test System: AMES SALMONELLA TYPHIMURIUM, Strain/Indicator: TA98, Metabolic Activation: HAMSTER, LIVER, S-9, AROCLOR 1254 (10%), Method: PREINCUBATION
[2] = Test System: AMES SALMONELLA TYPHIMURIUM, Strain/Indicator: TA98, Metabolic Activation: NONE, Method: PREINCUBATION
[3] = Test System: AMES SALMONELLA TYPHIMURIUM, Strain/Indicator: TA98, Metabolic Activation: RAT, LIVER, S-9, AROCLOR 1254 (10%), Method: PREINCUBATION
[4] = Test System: AMES SALMONELLA TYPHIMURIUM, Strain/Indicator: TA100, Metabolic Activation: HAMSTER, LIVER, S-9, AROCLOR 1254 (10%), Method: PREINCUBATION
[5] = Test System: AMES SALMONELLA TYPHIMURIUM, Strain/Indicator: TA100, Metabolic Activation: NONE, Method: PREINCUBATION
[6] = Test System: AMES SALMONELLA TYPHIMURIUM, Strain/Indicator: TA100, Metabolic Activation: RAT, LIVER, S-9, AROCLOR 1254 (10%), Method: PREINCUBATION
[7] = Test System: AMES SALMONELLA TYPHIMURIUM, Strain/Indicator: TA1535, Metabolic Activation: HAMSTER, LIVER, S-9, AROCLOR 1254 (10%), Method: PREINCUBATION
[8] = Test System: AMES SALMONELLA TYPHIMURIUM, Strain/Indicator: TA1535, Metabolic Activation: NONE, Method: PREINCUBATION
[9] = Test System: AMES SALMONELLA TYPHIMURIUM, Strain/Indicator: TA1535, Metabolic Activation: RAT, LIVER, S-9, AROCLOR 1254 (10%), Method: PREINCUBATION
[10] = Test System: AMES SALMONELLA TYPHIMURIUM, Strain/Indicator: TA1537, Metabolic Activation: HAMSTER, LIVER, S-9, AROCLOR 1254 (10%), Method: PREINCUBATION
[11] = Test System: AMES SALMONELLA TYPHIMURIUM, Strain/Indicator: TA1537, Metabolic Activation: NONE, Method: PREINCUBATION
[12] = Test System: AMES SALMONELLA TYPHIMURIUM, Strain/Indicator: TA1537, Metabolic Activation: RAT, LIVER, S-9, AROCLOR 1254 (10%), Method: PREINCUBATION

C=CC(O)CCCCC (stereo not drawn)
mutagenic call (Test System: CHINESE HAMSTER V-79, Strain/Indicator: V-79 (HPRT)/6-THIOGUANINE, Metabolic Activation: NONE, Method: STANDARD PLATE): inactive; negative | mutagenic call (Test System: CHINESE HAMSTER V-79, Strain/Indicator: V-79 (HPRT)/6-THIOGUANINE, Metabolic Activation: RAT LIVER S-9, Method: STANDARD PLATE): inactive; negative

CCN(CC)CCO
mutagenic call [1]: inactive; negative | mutagenic call [2]: inactive; negative | mutagenic call [3]: inactive; negative | mutagenic call [4]: inactive; negative | mutagenic call [5]: inactive; negative | mutagenic call [6]: inactive; negative | mutagenic call [7]: inactive; negative | mutagenic call [8]: inactive; negative | mutagenic call [9]: inactive; negative | mutagenic call [10]: inactive; negative | mutagenic call [11]: inactive; negative | mutagenic call [12]: inactive; negative

Nc1nc(=S)c2[nH]cnc2[nH]1
mutagenic call (End Point: IN VITRO CHROMOSOMAL ABERRATIONS, Test System: HUMAN HCT116/3-6 CELLS, Metabolic Activation: NONE): active; positive | mutagenic call (End Point: IN VITRO CHROMOSOMAL ABERRATIONS, Test System: HUMAN HCT116 CELLS, Metabolic Activation: NONE): active; positive | mutagenic call (End Point: IN VITRO CHROMOSOMAL ABERRATIONS, Test System: HUMAN MT1 CELLS, Metabolic Activation: NONE): active; positive | mutagenic call (End Point: IN VITRO CHROMOSOMAL ABERRATIONS, Test System: HUMAN TK6 CELLS, Metabolic Activation: NONE): active; positive

N[C@@H](Cc1c[nH]c2ccc(O)cc12)C(=O)O
mutagenic call [5]: inactive; negative

O=C1c2ccccc2-c2ccc3c4c(ccc1c24)-c1ccccc1C3=O
mutagenic call [1]: inactive; negative | mutagenic call [2]: inactive; negative | mutagenic call [3]: inactive; negative | mutagenic call [4]: inactive; negative | mutagenic call [5]: inactive; negative | mutagenic call [6]: inactive; negative | mutagenic call [7]: inactive; negative | mutagenic call [8]: inactive; negative | mutagenic call [9]: inactive; negative | mutagenic call [10]: inactive; negative | mutagenic call [11]: inactive; negative | mutagenic call [12]: inactive; negative | mutagenic call (Test System: MOUSE LYMPHOMA, Strain/Indicator: L5178Y (TK+/TK-), Metabolic Activation: RAT, LIVER, S-9, AROCLOR, Method: SUSPENSION/PLATE): active; positive

Clc1cc2c(cc1Cl)Oc1cc(Cl)c(Cl)cc1O2
mutagenic call (End Point: IN VITRO CHROMOSOMAL ABERRATIONS, Test System: CHINESE HAMSTER OVARY CELLS, Metabolic Activation: NONE): inactive; negative | mutagenic call (End Point: IN VITRO CHROMOSOMAL ABERRATIONS, Test System: CHINESE HAMSTER OVARY CELLS, Metabolic Activation: RAT, LIVER, S-9, AROCLOR 1254): inactive; negative | mutagenic call (Test System: AMES SALMONELLA TYPHIMURIUM, Strain/Indicator: TA97, Metabolic Activation: NONE, Method: PREINCUBATION): inactive; negative | mutagenic call (Test System: AMES SALMONELLA TYPHIMURIUM, Strain/Indicator: TA97, Metabolic Activation: RAT, LIVER, S-9, AROCLOR 1254, Method: PREINCUBATION): inactive; negative | mutagenic call [2]: inactive; negative | mutagenic call (Test System: AMES SALMONELLA TYPHIMURIUM, Strain/Indicator: TA98, Metabolic Activation: RAT, LIVER, S-9, AROCLOR 1254, Method: PREINCUBATION): inactive; negative | mutagenic call [5]: inactive; negative | mutagenic call (Test System: AMES SALMONELLA TYPHIMURIUM, Strain/Indicator: TA100, Metabolic Activation: RAT, LIVER, S-9, AROCLOR 1254, Method: PREINCUBATION): inactive; negative | mutagenic call (Test System: Ames Salmonella typhimurium, Strain/Indicator: TA98, Metabolic Activation: Hamster, Liver, S-9, Aroclor 1254, Method: Preincubation): inactive; negative | mutagenic call (Test System: Ames Salmonella typhimurium, Strain/Indicator: TA98, Metabolic Activation: None, Method: Preincubation): inactive; negative | mutagenic call (Test System: Ames Salmonella typhimurium, Strain/Indicator: TA98, Metabolic Activation: Rat, Liver, S-9, Aroclor 1254, Method: Preincubation): inactive; negative | mutagenic call (Test System: Ames Salmonella typhimurium, Strain/Indicator: TA100, Metabolic Activation: Hamster, Liver, S-9, Aroclor 1254, Method: Preincubation): inactive; negative | mutagenic call (Test System: Ames Salmonella typhimurium, Strain/Indicator: TA100, Metabolic Activation: None, Method: Preincubation): inactive; negative | mutagenic call (Test System: Ames Salmonella typhimurium, Strain/Indicator: TA100, Metabolic Activation: Rat, Liver, S-9, Aroclor 1254, Method: Preincubation): inactive; negative | mutagenic call (Test System: Ames Salmonella typhimurium, Strain/Indicator: TA1535, Metabolic Activation: Hamster, Liver, S-9, Aroclor 1254, Method: Preincubation): inactive; negative | mutagenic call (Test System: Ames Salmonella typhimurium, Strain/Indicator: TA1535, Metabolic Activation: None, Method: Preincubation): inactive; negative | mutagenic call (Test System: Ames Salmonella typhimurium, Strain/Indicator: TA1535, Metabolic Activation: Rat, Liver, S-9, Aroclor 1254, Method: Preincubation): inactive; negative | mutagenic call (Test System: Ames Salmonella typhimurium, Strain/Indicator: TA1537, Metabolic Activation: Hamster, Liver, S-9, Aroclor 1254, Method: Preincubation): inactive; negative | mutagenic call (Test System: Ames Salmonella typhimurium, Strain/Indicator: TA1537, Metabolic Activation: None, Method: Preincubation): inactive; negative | mutagenic call (Test System: Ames Salmonella typhimurium, Strain/Indicator: TA1537, Metabolic Activation: Rat, Liver, S-9, Aroclor 1254, Method: Preincubation): inactive; negative | mutagenic call (Test System: MOUSE LYMPHOMA, Strain/Indicator: L5178Y (TK+/TK-), Metabolic Activation: NONE, Method: SUSPENSION/PLATE): inactive; negative | mutagenic call (Test System: MOUSE LYMPHOMA, Strain/Indicator: L5178Y (TK+/TK-), Metabolic Activation: RAT, LIVER, S-9, AROCLOR 1254, Method: SUSPENSION/PLATE): inactive; negative

CCc1cc(-c2ccccc2)ccc1N
mutagenic call (Test System: AMES SALMONELLA TYPHIMURIUM, Strain/Indicator: TA98, Metabolic Activation: NONE, Method: STANDARD PLATE): inactive; negative | mutagenic call (Test System: AMES SALMONELLA TYPHIMURIUM, Strain/Indicator: TA98, Metabolic Activation: RAT LIVER S-9, AROCLOR, Method: STANDARD PLATE): active; positive | mutagenic call (Test System: AMES SALMONELLA TYPHIMURIUM, Strain/Indicator: TA100, Metabolic Activation: NONE, Method: STANDARD PLATE): active; positive | mutagenic call (Test System: AMES SALMONELLA TYPHIMURIUM, Strain/Indicator: TA100, Metabolic Activation: RAT LIVER S-9, AROCLOR, Method: STANDARD PLATE): active; positive
